From patent publication US9062014B2, “Crystalline forms of (R)-5-[3-chloro-4-(2,3-dihydroxy-propoxy)-benz[Z]ylidene]-2-([Z]-propylimino)-3-0-tolyl-thiazolidin-4-one” (ACTELION PHARMACEUTICALS LTD., priority 2008, dated 2015)

Experiment: Hygroscopicity by gravimetric vapour sorption (GVS)
Assay type: physicochemical
Details: 25° C.; for Hygroscopicity classification according to the European Pharmacopea Technical Guide (1999 edition): mass change between 40% and 80% relative humidity, first adsorption scan; for mass gain: mass change between 40% relative humidity and 80% relative humidity in the first adsorption scan
Method: Gravimetric Vapour Sorption (GVS)
Sorption isotherms are obtained using a Hiden IGASorp moisture sorption analyser, controlled by CFRSorp software. The sample temperature is maintained at 25° C. by a Huber re-circulating water bath. The humidity is controlled by mixing streams of dry and wet nitrogen, with a total flow rate of 250 ml·min^−1. The relative humidity is measured by a calibrated Vaisala RH probe (dynamic range of 0-95% RH), located near the sample. The weight change of the sample as a function of % RH is constantly monitored by the microbalance (accuracy±0.001 mg).
Typically 10-20 mg of sample is placed in a tared mesh stainless steel basket under ambient conditions. The sample is loaded and unloaded at 40% RH and 25° C. (typical room conditions).
A moisture sorption isotherm is performed as outlined below (2 scans giving 1 complete cycle). The standard isotherm is performed at 25° C. at 10% RH intervals over a 0-90% RH range.
The software uses a least squares minimisation procedure together with a model of the mass relaxation, to predict an asymptotic value. The measured mass relaxation value must be within 5% of that predicted by the software, before the next % RH value is selected. The minimum equilibration time is set to 1 hour and the maximum to 4 hours.
Classification is done according to the European Pharmacopea Technical Guide (1999 edition) (e.g. slightly hygroscopic: increase in mass is less than 2% and equal to or greater than 0.2% mass/mass; hygroscopic: increase in mass is less than 15% and equal to or greater than 2% mass/mass). The mass change between 40% relative humidity and 80% relative humidity in the first adsorption scan is considered.

| SMILES | Hygroscopicity classification according to the European Pharmacopea Technical Guide (1999 edition) | mass gain [%] |
| --- | --- | --- |
| CCC/N=C1\S/C(=C\c2ccc(OC[C@H](O)CO)c(Cl)c2)C(=O)N1c1ccccc1C [Amorphous, (R)-5-[3-chloro-4-(2,3-dihydroxy-propoxy)-benz[Z]ylidene]-2-([Z]-propylimino)-3-o-tolyl-thiazolidin-4-one] | Hygroscopic (hygroscopic: increase in mass is less than 15% and equal to or greater than 2% mass/mass) | 2.1 |
| CCC/N=C1\S/C(=C\c2ccc(OC[C@H](O)CO)c(Cl)c2)C(=O)N1c1ccccc1C [Form A, (R)-5-[3-chloro-4-(2,3-dihydroxy-propoxy)-benz[Z]ylidene]-2-([Z]-propylimino)-3-o-tolyl-thiazolidin-4-one] | Non-hygroscopic | < 0.2 |
| CCC/N=C1\S/C(=C\c2ccc(OC[C@H](O)CO)c(Cl)c2)C(=O)N1c1ccccc1C [Form C, (R)-5-[3-chloro-4-(2,3-dihydroxy-propoxy)-benz[Z]ylidene]-2-([Z]-propylimino)-3-o-tolyl-thiazolidin-4-one] | Non-hygroscopic | < 0.2 |
| CCC/N=C1\S/C(=C\c2ccc(OC[C@H](O)CO)c(Cl)c2)C(=O)N1c1ccccc1C [Form II, (R)-5-[3-chloro-4-(2,3-dihydroxy-propoxy)-benz[Z]ylidene]-2-([Z]-propylimino)-3-o-tolyl-thiazolidin-4-one] | Slightly hygroscopic (slightly hygroscopic: increase in mass is less than 2% and equal to or greater than 0.2% mass/mass) | 0.2 |
